Data reported in ChEMBL document CHEMBL4152347 (J Med Chem, 2018).

Key:
[1] = Total plasma clearance in CD1 mouse at 1 mg/kg, iv; format: ADME, organism-based
[2] = Stability of the compound in human liver microsomes in presence of […]; format: ADME, microsome
[3] = Tmax in CD1 mouse at 5 mg/kg, po administered via gavage; format: ADME, organism-based; details: in vivo
Canis familiaris [4] = test: AUC (0 to infinity) in beagle dog at 5 mg/kg, po administered via gavage as microsuspension along with high fat meal; format: ADME, organism-based, Canis lupus familiaris; parameters: dose 5 mg/kg, time infinity, route oral; details: in vivo
[5] = Volume of distribution at steady state in cynomolgus monkey at 1 mg/kg, iv; format: ADME, organism-based, Macaca fascicularis; details: in vivo, read-out: Vdss
[6] = Tmax in Sprague-Dawley rat at 5 mg/kg, id; format: ADME, organism-based; details: in vivo
[7] = AUC (0 to infinity) in Sprague-Dawley rat at 1 mg/kg, iv; format: ADME, organism-based; parameters: dose 1 mg/kg, time infinity, route intravenous; details: in vivo
[8] = target: Gag-Pol polyprotein (Human immunodeficiency virus type 1 group M subtype B (isolate HXB2)(HIV-1)) (UniProt P04585); details: Human immunodeficiency virus 1
Description: Binding affinity to HIV1 gag polyprotein delta V370 mutant containing viral like particle assessed as dissociation half life

Salmonella typhimurium [9] = test: Mutagenicity in Salmonella typhimurium TA98 in absence of Aroclor 1254-induced rat liver S9 fraction at up to 1600 ug/plate; format: toxicity, organism-based; details: salmonella enterica subsp. enterica serovar typhimurium
Salmonella typhimurium [10] = test: Mutagenicity in Salmonella typhimurium TA98 in presence of Aroclor 1254-induced rat liver S9 fraction at up to 1600 ug/plate; format: toxicity, organism-based; details: salmonella enterica subsp. enterica serovar typhimurium
[11] = Cmax in MDR1 a/b knockout mouse at 5 mg/kg, po administered via gavage; format: ADME, organism-based; parameters: dose 5 mg/kg, route oral; details: in vivo
[12] = Tmax in beagle dog at 5 mg/kg, po administered via gavage as microsuspension pre-treated with 6 ug/kg, im pentagastrin 15 to 30 mins before compound dosing; format: ADME, organism-based, Canis lupus familiaris; details: in vivo
[13] = Total plasma clearance in cynomolgus monkey at 1 mg/kg, iv; format: ADME, organism-based, Macaca fascicularis
[14] = AUC (0 to infinity) in Sprague-Dawley rat at 5 mg/kg, po treated with 10 mg/kg elacridar immediately after compound dosing; format: ADME, organism-based; parameters: dose 5 mg/kg, route oral, time infinity; details: in vivo, with elacridar 10 mg/kg
[15] = Oral bioavailability in MDR1 a/b knockout mouse at 5 mg/kg administered via gavage; format: ADME, organism-based; details: in vivo
[16] = Cmax in Sprague-Dawley rat at 5 mg/kg, id; format: ADME, organism-based; parameters: dose 5 mg/kg; details: in vivo
[17] = Cmax in beagle dog at 5 mg/kg, po administered via gavage as solution; format: ADME, organism-based, Canis lupus familiaris; parameters: dose 5 mg/kg, route oral; details: in vivo
[18] = target: Human immunodeficiency virus type 1 Gag protein (Human immunodeficiency virus 1) (UniProt Q77YG1)
Description: Binding affinity to wild type HIV1 gag polyprotein containing viral like particle assessed as dissociation half life

[19] = AUC (0 to infinity) in beagle dog at 5 mg/kg, po administered via gavage as microsuspension pre-treated with 6 ug/kg, im pentagastrin 15 to 30 mins before compound dosing; format: ADME, organism-based, Canis lupus familiaris; details: in vivo
[20] = Oral bioavailability in cynomolgus monkey at 5 mg/kg administered via gavage; format: ADME, organism-based, Macaca fascicularis; details: in vivo
[21] = tested on: Gag-Pol polyprotein (Human immunodeficiency virus type 1 group M subtype B (isolate HXB2)(HIV-1)), P04585 [V370A]; details: Human immunodeficiency virus 1
Gag-Pol polyprotein [22] = target: Gag-Pol polyprotein (Human immunodeficiency virus type 1 group M subtype B (isolate HXB2)(HIV-1), UniProt P04585)
Description: Binding affinity to HIV1 gag polyprotein delta V370 mutant containing viral like particle

Cytochrome P450 3A4 = Cytochrome P450 3A4 (Homo sapiens, UniProt P08684); test: Drug metabolism assessed as recombinant CYP3A4 (unknown origin)-mediated oxidative metabolism; format: ADME; details: recombinant enzyme
Sequence of Cytochrome P450 3A4 (P08684 whole entry): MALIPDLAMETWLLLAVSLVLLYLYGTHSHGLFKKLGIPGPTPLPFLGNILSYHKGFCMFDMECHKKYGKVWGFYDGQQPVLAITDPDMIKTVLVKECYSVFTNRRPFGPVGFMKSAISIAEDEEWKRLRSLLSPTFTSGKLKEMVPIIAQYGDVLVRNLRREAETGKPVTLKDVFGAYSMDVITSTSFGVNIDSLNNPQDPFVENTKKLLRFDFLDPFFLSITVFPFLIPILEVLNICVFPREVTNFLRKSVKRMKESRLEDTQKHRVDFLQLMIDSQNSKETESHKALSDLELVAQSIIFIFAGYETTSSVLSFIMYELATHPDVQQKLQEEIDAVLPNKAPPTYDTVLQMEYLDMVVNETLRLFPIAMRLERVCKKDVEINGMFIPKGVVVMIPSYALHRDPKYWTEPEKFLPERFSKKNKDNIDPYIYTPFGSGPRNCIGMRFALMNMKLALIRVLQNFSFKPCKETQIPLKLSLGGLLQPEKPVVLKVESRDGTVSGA

[23] = Tmax in cynomolgus monkey at 5 mg/kg, po administered via gavage; format: ADME, organism-based, Macaca fascicularis; details: in vivo
in vitro [24] = details: human, MT2 cells
Description: Cytotoxicity against human MT2 cells assessed as reduction in cell viability

[25] = Cmax in Sprague-Dawley rat at 5 mg/kg, po; format: ADME, organism-based; parameters: dose 5 mg/kg, route oral; details: in vivo
[26] = Tmax in beagle dog at 5 mg/kg, po administered via gavage as microsuspension pre-treated with 40 mg famotidine in capsule form 1 hr before compound dosing; format: ADME, organism-based, Canis lupus familiaris; details: in vivo
[27] = AUC (0 to infinity) in cynomolgus monkey at 5 mg/kg, po administered via gavage; format: ADME, organism-based, Macaca fascicularis; parameters: dose 5 mg/kg, route oral, time infinity; details: in vivo
[28] = Volume of distribution at steady state in CD1 mouse at 1 mg/kg, iv; format: ADME, organism-based; details: in vivo, read-out: Vdss
Gag-Pol polyprotein [29] = target: Gag-Pol polyprotein (Human immunodeficiency virus type 1 group M subtype B (isolate HXB2)(HIV-1), UniProt P04585, V370A)
[30] = Half life in rat hepatocytes at 0.5 uM after 1 hr in presence of NADPH by LC-MS/MS analysis; format: ADME, cell-based, Hepatocyte
[31] = Cmax in beagle dog at 5 mg/kg, po administered via gavage as microsuspension pre-treated with 40 mg famotidine in capsule form 1 hr before compound dosing; format: ADME, organism-based, Canis lupus familiaris; parameters: dose 5 mg/kg, route oral; details: in vivo
Canis familiaris [32] = test: Half life in beagle dog at 1 mg/kg, iv; format: ADME, organism-based, Canis lupus familiaris; details: in vivo
[33] = Half life in dog hepatocytes at 0.5 uM after 1 hr in presence of NADPH by LC-MS/MS analysis; format: ADME, cell-based, Canis lupus familiaris, Hepatocyte
[34] = Oral bioavailability in CD1 mouse at 5 mg/kg; format: ADME, organism-based; details: in vivo
[35] = AUC (0 to infinity) in beagle dog at 5 mg/kg, po administered via gavage as solution; format: ADME, organism-based, Canis lupus familiaris; parameters: dose 5 mg/kg, route oral, time infinity; details: in vivo
in vitro [36] = details: human, liver microsomes
Description: Half life in human liver microsomes at 0.5 uM after 1 hr in presence of NADPH by LC-MS/MS analysis

[37] = AUC (0 to infinity) in Sprague-Dawley rat at 5 mg/kg, po; format: ADME, organism-based; parameters: dose 5 mg/kg, time infinity, route oral; details: in vivo
[38] = Protein binding in mouse serum at 53 nM after 1 hr by ultracentrifugation assay; format: ADME, cell-free; details: read-out: PB (converted)
[39] = AUC (0 to infinity) in beagle dog at 5 mg/kg, po administered via gavage as microsuspension pre-treated with 40 mg famotidine in capsule form 1 hr before compound dosing; format: ADME, organism-based, Canis lupus familiaris; parameters: dose 5 mg/kg, time infinity, route oral; details: in vivo
[40] = Bioavailability in Sprague-Dawley rat at 5 mg/kg, id; format: ADME, organism-based; details: in vivo
in vivo [41] = details: Sprague-Dawley, rat, po, 5 mg/kg
[42] = Half life in mouse liver microsomes at 0.5 uM after 1 hr in presence of NADPH by LC-MS/MS analysis; format: ADME, microsome
in vivo [43] = details: Sprague-Dawley, rat, po, 5 mg/kg; remark: listed apart in the source
[44] = Total plasma clearance in Sprague-Dawley rat at 1 mg/kg, iv; format: ADME, organism-based
in vitro [45] = details: rat, liver microsomes
Description: Half life in rat liver microsomes at 0.5 uM after 1 hr in presence of NADPH by LC-MS/MS analysis

[46] = Tmax in beagle dog at 5 mg/kg, po administered via gavage as microsuspension along with high fat meal; format: ADME, organism-based, Canis lupus familiaris; details: in vivo
[47] = Protein binding in human serum at 53 nM after 1 hr by ultracentrifugation assay; format: ADME, cell-free; details: read-out: PB (converted)
[48] = Cmax in cynomolgus monkey at 5 mg/kg, po administered via gavage; format: ADME, organism-based, Macaca fascicularis; parameters: dose 5 mg/kg, route oral; details: in vivo
[49] = Cmax in Sprague-Dawley rat at 5 mg/kg, po treated with 10 mg/kg elacridar immediately after compound dosing; format: ADME, organism-based; parameters: dose 5 mg/kg, route oral; details: in vivo, with elacridar 10 mg/kg
[50] = Tmax in Sprague-Dawley rat at 5 mg/kg, po treated with 10 mg/kg elacridar immediately after compound dosing; format: ADME, organism-based; details: in vivo, with elacridar 10 mg/kg
[51] = AUC (0 to infinity) in Sprague-Dawley rat at 5 mg/kg, id; format: ADME, organism-based; parameters: dose 5 mg/kg, time infinity; details: in vivo

## C=C(C)[C@@H]1CC[C@]2(NCCN3CCS(=O)(=O)CC3)CC[C@]3(C)[C@H](CC[C@@H]4[C@@]5(C)CC=C(c6ccc(C(=O)O)cc6)C(C)(C)[C@@H]5CC[C@]43C)[C@@H]12 [BMS-955176]
[1]
  clearance: 1.1 mL/min/kg
[2]
  Stability: Stable
[3]
  Tmax: 3 h
Canis familiaris [4]
  AUC: 643 µM·h
[5]
  Vd: 0.43 L/kg
[6]
  Tmax: 1 h
[7]
  AUC(0-inf): 11.1 µM·h
[8]
  T1/2: 0.767 h
Salmonella typhimurium [9]
  Activity: Non-Toxic
Salmonella typhimurium [10]
  Activity: Non-Toxic
[11]
  Cmax: 4020 nM
[12]
  Tmax: 10.5 h
[13]
  clearance: 1.9 mL/min/kg
[14]
  AUC(0-inf): 47.4 µM·h
[15]
  bioavailability: 45%
[16]
  Cmax: 1700 nM
[17]
  Cmax: 560 nM
[18]
  T1/2: 0.683 h
[19]
  AUC(0-inf): 276 µM·h
[20]
  bioavailability: 4%
[21]
  T1/2: 0.6 h
Gag-Pol polyprotein [22]
  Kd: 33.6 nM
Cytochrome P450 3A4
  Drug metabolism: Metabolite_Detected
[23]
  Tmax: 3.3 h
In vitro [24]
  CC50: 9200 nM
[25]
  Cmax: 1200 nM
[26]
  Tmax: 13.5 h
[27]
  AUC(0-inf): 1 µM·h
[28]
  Vd: 0.82 L/kg
Gag-Pol polyprotein [29]
  Kd: 6.5 nM
[30]
  half-life at 0.5 µM: > 2 h
[31]
  Cmax: 4040 nM
Canis familiaris [32]
  t1/2: 7.8 min
[33]
  half-life at 0.5 µM: > 2 h
[34]
  bioavailability: 26.8%
[35]
  AUC(0-inf): 29.4 µM·h
In vitro [36]
  half-life at 1 h, 0.5 µM: > 2 h
[37]
  AUC(0-inf): 14.2 µM·h
[38]
  fraction unbound at 1 h, 0.053 µM: 0.106
[39]
  AUC(0-inf): 236 µM·h
[40]
  bioavailability: 36%
In vivo [41]
  AUC(0-t) at 6 h: 4.13 µM·h
[42]
  half-life at 0.5 µM: > 2 h
In vivo [43]
  AUC(0-t) at 24 h: 14.2 µM·h
[44]
  clearance: 2.2 mL/min/kg
In vitro [45]
  half-life at 1 h, 0.5 µM: > 2 h
[46]
  Tmax: 10.5 h
[47]
  fraction unbound at 1 h, 0.053 µM: 0.139
[48]
  Cmax: 62 nM
[49]
  Cmax: 1800 nM
[50]
  Tmax: 7.3 h
[51]
  AUC(0-inf): 19.9 µM·h
